The conditions of series [1]: Liquid; for mass density: 303.15 K, 91.2 kPa, Vibrating tube method; for vapor or sublimation pressure: Ebulliometric method (Recirculating still).
Series [2] in a line: wn = mass fraction of the nth substance listed. The conditions noted are these: 303.15 K, 91.2 kPa, Liquid, Vibrating tube method.

SMILES strings stand for the structures. Numbers after ± are expanded uncertainties.

In the case of `CCO` [ethanol], in series [1], the mass density (usually mass per unit of volume) is 781 ± 2 kg/m3.

On to `CCO` [ethanol] + OCC(O)CO, for which the mass density in series [2] (w2 = 0) turned out to be 781 ± 2 kg/m3.

As for `CCO` [ethanol] + [Cl-].[Na+], in series [2] (w2 = 0), the mass density worked out at 781 ± 2 kg/m3.

For `OCC(O)CO` [glycerol], the mass density in series [1] was found to be 1255 ± 3 kg/m3.

For `OCC(O)CO` [glycerol] + CCO, the mass density in series [2] (w1 = 0.1529) turned out to be 835 ± 2 kg/m3; in series [2] (w1 = 0.2901), 888 ± 2 kg/m3; in series [2] (w1 = 0.4124), 939 ± 2 kg/m3; in series [2] (w1 = 0.5159), 985 ± 2 kg/m3; in series [2] (w1 = 0.6211), 1036 ± 2 kg/m3; in series [2] (w1 = 0.7096), 1084 ± 2 kg/m3. The mass density worked out at 1136 ± 2 kg/m3 in series [2] (w1 = 0.7971), 1174 ± 3 kg/m3 in series [2] (w1 = 0.869), 1215 ± 3 kg/m3 in series [2] (w1 = 0.9357) and 1255 ± 3 kg/m3 in series [2] (w1 = 1).

As for `OCC(O)CO` [glycerol] + O, the mass density in series [2] (w1 = 0.1159) turned out to be 1022 ± 2 kg/m3; in series [2] (w1 = 0.2056), 1044 ± 2 kg/m3; in series [2] (w1 = 0.3521), 1080 ± 2 kg/m3; in series [2] (w1 = 0.4646), 1108 ± 2 kg/m3; in series [2] (w1 = 0.5524), 1133 ± 2 kg/m3; in series [2] (w1 = 1), 1255 ± 3 kg/m3.

For `[Cl-].[K+]` [potassium chloride] + O, the mass density stood at 1017 ± 2 kg/m3 in series [2] (w1 = 0.0344); 1029 ± 2 kg/m3 in series [2] (w1 = 0.053); 1038 ± 2 kg/m3 in series [2] (w1 = 0.067); 1058 ± 2 kg/m3 in series [2] (w1 = 0.0975); 1077 ± 2 kg/m3 in series [2] (w1 = 0.1259); 1095 ± 2 kg/m3 in series [2] (w1 = 0.1526). In addition, the mass density came out at 1113 ± 2 kg/m3 in series [2] (w1 = 0.1779); 1129 ± 2 kg/m3 in series [2] (w1 = 0.2009); 1137 ± 3 kg/m3 in series [2] (w1 = 0.2117); 1140 ± 2 kg/m3 in series [2] (w1 = 0.2156); 1161 ± 3 kg/m3 in series [2] (w1 = 0.2448); 1176 ± 3 kg/m3 in series [2] (w1 = 0.2645).

Regarding `[Cl-].[Na+]` [sodium chloride] + CCO, the mass density in series [2] (w1 = 0.00041) is recorded as 788 ± 2 kg/m3.

As to `[Cl-].[Na+]` [sodium chloride] + O, the mass density was determined as 1018 ± 2 kg/m3 in series [2] (w1 = 0.0318); 1042 ± 2 kg/m3 in series [2] (w1 = 0.0654); 1043 ± 2 kg/m3 in series [2] (w1 = 0.067); 1063 ± 2 kg/m3 in series [2] (w1 = 0.0949); 1065 ± 2 kg/m3 in series [2] (w1 = 0.0974); 1084 ± 2 kg/m3 in series [2] (w1 = 0.1232). In addition, the mass density in series [2] (w1 = 0.1259) is reported as 1086 ± 2 kg/m3; in series [2] (w1 = 0.1578), 1110 ± 2 kg/m3; in series [2] (w1 = 0.1772) it was 1125 ± 2 kg/m3; in series [2] (w1 = 0.2013), 1144 ± 3 kg/m3; in series [2] (w1 = 0.225), 1163 ± 3 kg/m3; in series [2] (w1 = 0.244) it was 1178 ± 3 kg/m3. For the same compound, the mass density in series [2] (w1 = 0.2672) came to 1195 ± 3 kg/m3.

On to `O` [water], for which the mass density in series [1] turned out to be 996 ± 2 kg/m3. Further, the vapor or sublimation pressure – broadly, the pressure of vapour in equilibrium with the condensed phase – in series [1] (327.65 K) is on record as 15.32 ± 0.9 kPa; in series [1] (337.15 K) it was 23.61 ± 0.97 kPa; in series [1] (341.35 K), 28.46 ± 1.4 kPa; in series [1] (344.45 K) it was 33.81 ± 1.5 kPa; in series [1] (348.05 K) it was 38.36 ± 1.5 kPa; in series [1] (351.55 K) it was 44.42 ± 1.9 kPa. Further, the “vapor or sublimation pressure” value in series [1] (355.75 K) was found to be 52.9 ± 1.9 kPa; in series [1] (358.05 K), 56.84 ± 2.4 kPa; in series [1] (361.85 K), 67.25 ± 2.7 kPa; in series [1] (365.65 K), 77.55 ± 3 kPa; in series [1] (370.05 K), 91.59 ± 3.2 kPa.

As to `O` [water] + OCC(O)CO, in series [2] (w2 = 0), the mass density was 996 ± 2 kg/m3.

Regarding `O` [water] + [Cl-].[K+], in series [2] (w2 = 0), the mass density worked out at 996 ± 2 kg/m3.

As for `O` [water] + [Cl-].[Na+], in series [2] (w2 = 0), the mass density is 996 ± 2 kg/m3.
